Experimental data published in patent US11884675B2, “Heterocyclic compounds as triggering receptor expressed on myeloid cells 2 agonists and methods of use” (AMGEN INC., priority 2020, dated 2024).

The compounds below were run against hTREM2 (Homo sapiens, UniProt Q9NZC2) (assay: TREM2 activity by cellular Syk phosphorylation (AlphaScreen/AlphaLISA) in TREM2/DAP12-HEK cells, used for Examples 1-305). Conditions: HEK293 Cells.
Assay type: cell-based
Parameters: expressed in transfected cells
In short: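 Phospho-Syk (Tyr525/526) over total Syk quantified by AlphaScreen in lysates of cloned TREM2/DAP12-overexpressing HEK293 cells after 45 min compound treatment at room temperature, 1% final DMSO. Values expressed relative to 100 nM anti-TREM2 antibody (positive) and isotype IgG (negative) controls; curves fitted with 4-parameter logistic model.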

Sequence of hTREM2 (Q9NZC2 19-230): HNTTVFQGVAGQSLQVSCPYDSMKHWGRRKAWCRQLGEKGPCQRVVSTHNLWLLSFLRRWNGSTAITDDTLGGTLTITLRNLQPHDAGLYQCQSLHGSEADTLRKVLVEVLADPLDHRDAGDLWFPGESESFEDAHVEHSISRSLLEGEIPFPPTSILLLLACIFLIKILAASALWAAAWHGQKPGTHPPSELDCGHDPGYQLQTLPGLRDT
Sequence of hTREM2 (O43914 22-113 partner): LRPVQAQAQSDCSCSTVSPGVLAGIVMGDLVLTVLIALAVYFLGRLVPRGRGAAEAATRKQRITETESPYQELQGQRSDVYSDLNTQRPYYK

Row | Compound | EC50 | hTREM2 Emax
1 | Cc1cc([C@H]2CN(c3nc4nc(C)c(C)nc4c([C@H]4C[C@H](C(F)F)C4)n3)CCO2)ccn1 [Example 54, 4-(trans-3-(difluoromethyl)cyclobutyl)-6,7-dimethyl-2-((2S)-2-(2-methyl-4-pyridinyl)-4-morpholinyl)pteridine] | ≤ 50 nM | ++ (Emax>100 and ≤150)
2 | Cc1nc2nc(N3CCO[C@@H](c4cnn(C)c4)C3)cc(-c3ccc(F)cc3F)c2nc1C [Example 161, 8-(2,4-difluorophenyl)-2,3-dimethyl-6-((2S)-2-(1-methyl-1H-pyrazol-4-yl)-4-morpholinyl)pyrido [2,3-b]pyrazine] | ≤ 50 nM | +++ (Emax>150 and ≤250)
3 | Cc1nc2nc(N3CCO[C@@H](c4cnn(C5CC5)c4)C3)nc(C3CCC(F)(F)CC3)c2nc1C [Example 138, 2-((2S)-2-(1-cyclopropyl-1H-pyrazol-4-yl)-4-morpholinyl)-4-(4,4-difluorocyclohexyl)-6,7-dimethylpteridine] | ≤ 50 nM | +++ (Emax>150 and ≤250)
4 | Cc1nc2cc(N3CCO[C@@H](c4cnn(C)c4)C3)nc([C@H]3C[C@H](C(F)(F)F)C3)c2nc1C [Example 80, 2,3-dimethyl-7-((2S)-2-(1-methyl-1H-pyrazol-4-yl)-4-morpholinyl)-5-(trans-3-(trifluoromethyl)cyclobutyl)pyrido[3,4-b]pyrazine] | 50 to 500 nM | ++ (Emax>100 and ≤150)
5 | Cc1nc2nc([C@@H]3CCO[C@H](c4cnn(C)c4)C3)nc(-c3ccc(F)cc3F)c2nc1C [Example 256, 4-(2,4-difluorophenyl)-6,7-dimethyl-2-((2S,4R)-2-(1-methyl-1H-pyrazol-4-yl)tetrahydro-2H-pyran-4-yl)pteridine] | 500 to 3000 nM | ++ (Emax>100 and ≤150)
6 | Cc1nc2nc(N3CC[C@H](C(F)F)C3)nc(-c3ccc(F)cc3F)c2nc1C [Example 244, (S)-2-(3-(difluoromethyl)pyrrolidin-1-yl)-4-(2,4-difluorophenyl)-6,7-dimethylpteridine] | 500 to 3000 nM | +++ (Emax>150 and ≤250)
7 | Cc1cnc2c(n1)nc(N1CCO[C@@H](c3cnn(C)c3)C1)nc2[C@H]1C[C@H](C(F)(F)F)C1 [Example 11, 7-methyl-2-((2S)-2-(1-methyl-1H-pyrazol-4-yl)-4-morpholinyl)-4-(trans-3-(trifluoromethyl)cyclobutyl)pteridine] | 50 to 500 nM | ++ (Emax>100 and ≤150)
8 | Cc1nc2nc(N3CCO[C@@H](c4cnn(C)c4)C3)nc(-c3ccc(Cl)cn3)c2nc1C [Example 291, (S)-4-(4-(5-chloropyridin-2-yl)-6,7-dimethylpteridin-2-yl)-2-(1-methyl-1H-pyrazol-4-yl)morpholine] | 50 to 500 nM | ++++ (Emax>250)
9 | Cc1nc2cc([C@@H]3CCO[C@@H](c4cnn(C)c4)C3)nc(-c3ccc(Cl)cc3F)c2nc1C [Example 245, 5-(4-chloro-2-fluorophenyl)-2,3-dimethyl-7-((2R,4R)-2-(1-methyl-1H-pyrazol-4-yl)tetrahydro-2H-pyran-4-yl)pyrido[3,4-b]pyrazine] | 3000 to 100000 nM | ++++ (Emax>250)
10 | Cc1cc([C@@H]2CN(c3nc(-c4ccc(Cl)cc4F)c4ccc(C)nc4n3)CCO2)cnn1 (single isomer, unassigned) [Example 87] | 50 to 500 nM | ++++ (Emax>250)
11 | Cc1cc([C@@H]2C[C@@H](c3nc(-c4ccc(F)cc4F)c4ccc(C)nc4n3)CCO2)ccn1 (single isomer, unassigned) [Example 221] | 500 to 3000 nM | 
12 | Cc1nc2cc([C@@H]3CCO[C@H](c4cnn(C5CC5)c4)C3)nc(-c3ccc(Cl)cc3F)c2nc1C [Example 297, 5-(4-chloro-2-fluorophenyl)-7-((2S,4R)-2-(1-cyclopropyl-1H-pyrazol-4-yl)tetrahydro-2H-pyran-4-yl)-2,3-dimethylpyrido[3,4-b]pyrazine] | 3000 to 100000 nM | 
13 | Cc1ccc(-c2nc(N3CCO[C@@H](c4cnn(C)c4)C3)nc3nc(C)c(C)nc23)cn1 [Example 20, 6,7-dimethyl-2-((2S)-2-(1-methyl-1H-pyrazol-4-yl)-4-morpholinyl)-4-(6-methyl-3-pyridinyl)pteridine] | 500 to 3000 nM | +++ (Emax>150 and ≤250)
14 | Cc1nc2nc([C@H]3CCO[C@@H](c4cnn(C)c4)C3)nc([C@H]3C[C@H](C(F)(F)F)C3)c2nc1C (single isomer, unassigned) [Example 205] | 50 to 500 nM | +++ (Emax>150 and ≤250)
15 | Cc1ncc([C@@H]2CN(c3nc(-c4ccc(C(F)(F)F)nc4)c4nc(C)c(C)nc4n3)CCO2)cn1 [Example 295, (R)-4-(6,7-dimethyl-4-(6-(trifluoromethyl)pyridin-3-yl)pteridin-2-yl)-2-(2-methylpyrimidin-5-yl)morpholine] | ≤ 50 nM | +++ (Emax>150 and ≤250)
16 | Cc1nc2nc(N3CCO[C@@H](c4cnn(C)c4)C3)nc(N3CCC[C@H](F)C3)c2nc1C (single isomer, unassigned) [Example 70] | 500 to 3000 nM | + (Emax>45 and ≤100)

Row | Compound | EC50 | hTREM2 Emax
17 | Cc1cnc2c(-c3ccc(Cl)cc3F)cc(N3CCO[C@@H](c4cnn(C)c4)C3)nc2n1 [Example 159, 8-(4-chloro-2-fluorophenyl)-3-methyl-6-((2S)-2-(1-methyl-1H-pyrazol-4-yl)-4-morpholinyl)pyrido [2,3-b]pyrazine] | 50 to 500 nM | +++ (Emax>150 and ≤250)
18 | Cc1cc([C@H]2C[C@@H](c3nc(-c4ccc(Cl)cc4F)c4nc(C)c(C)nc4n3)CCO2)ccn1 (single isomer, unassigned) [Example 207] | ≤ 50 nM | +++ (Emax>150 and ≤250)
19 | Cc1ccc2c(n1)nc(N1CCO[C@@H](c3cnn(C)c3)C1)nc2[C@H]1C[C@H](C(F)(F)F)C1 [Example 97, 7-methyl-2-((2S)-2-(1-methyl-1H-pyrazol-4-yl)-4-morpholinyl)-4-(trans-3-(trifluoromethyl)cyclobutyl)pyrido[2,3-d]pyrimidine] | 500 to 3000 nM | + (Emax>45 and ≤100)
20 | Cc1cc2c(-c3ccc(Cl)cc3F)nc(N3CCO[C@@H](c4cnn(C)c4)C3)nc2nc1C [Example 103, 4-(4-chloro-2-fluorophenyl)-6,7-dimethyl-2-((2S)-2-(1-methyl-1H-pyrazol-4-yl)-4-morpholinyl)pyrido[2,3-d]pyrimidine] | ≤ 50 nM | ++++ (Emax>250)
21 | Cc1cc([C@H]2C[C@@H](c3nc4nc(C)c(C)nc4c([C@H]4C[C@H](C(F)(F)F)C4)n3)CCO2)ccn1 (single isomer, unassigned) [Example 215] | ≤ 50 nM | +++ (Emax>150 and ≤250)
22 | Cc1cc([C@H]2CN(c3nc(-c4ccc(Cl)cc4F)c4ccc(C)nc4n3)CCO2)ccn1 [Example 88, 4-(4-chloro-2-fluorophenyl)-7-methyl-2-((2S)-2-(2-methyl-4-pyridinyl)-4-morpholinyl)pyrido[2,3-d]pyrimidine] | ≤ 50 nM | ++++ (Emax>250)
23 | Cc1nc2nc(N3CCO[C@@H]([C@@H]4CCOC4)C3)nc(-c3ccc(F)cc3F)c2nc1C (single isomer, unassigned) [Example 34] | 500 to 3000 nM | +++ (Emax>150 and ≤250)
24 | Cc1nc2nc(N3CCO[C@@H](c4cnn(C)c4)C3)nc([C@H]3CC[C@H](C(F)(F)F)CC3)c2nc1C [Example 132, 6,7-dimethyl-2-((2S)-2-(1-methyl-1H-pyrazol-4-yl)-4-morpholinyl)-4-(trans-4-(trifluoromethyl)cyclohexyl)pteridine] | ≤ 50 nM | ++ (Emax>100 and ≤150)
25 | Cc1nc2nc(N3CCO[C@@H](c4cnn(C)c4)C3)nc(N3CCC(F)(F)C3)c2nc1C [Example 71, 4-(3,3-difluoro-1-pyrrolidinyl)-6,7-dimethyl-2-((2S)-2-(1-methyl-1H-pyrazol-4-yl)-4-morpholinyl)pteridine] | 3000 to 100000 nM | ++ (Emax>100 and ≤150)
26 | Cc1nc2nc([C@@H]3CCO[C@@H](c4cnn(C)c4)C3)cc(-c3ccc(Cl)cc3F)c2nc1C [Example 249, 8-(4-chloro-2-fluorophenyl)-2,3-dimethyl-6-((2R,4R)-2-(1-methyl-1H-pyrazol-4-yl)tetrahydro-2H-pyran-4-yl)pyrido[2,3-b]pyrazine] | 500 to 3000 nM | +++ (Emax>150 and ≤250)
27 | Cc1nc2nc(N3CCO[C@@H](c4cnn(C)c4)C3)nc([C@H]3C[C@@H](C(F)(F)F)C3)c2nc1C [Example 43, 6,7-dimethyl-2-((2S)-2-(1-methyl-1H-pyrazol-4-yl)-4-morpholinyl)-4-(cis-3-(trifluoromethyl)cyclobutyl)pteridine] | 50 to 500 nM | +++ (Emax>150 and ≤250)
28 | Cc1nc2nc(N3CCO[C@@H](c4cnn(C)c4)C3)nc(-c3ccc(C(F)(F)F)cc3F)c2nc1C [Example 17, 4-(2-fluoro-4-(trifluoromethyl)phenyl)-6,7-dimethyl-2-((2S)-2-(1-methyl-1H-pyrazol-4-yl)-4-morpholinyl)pteridine] | ≤ 50 nM | ++++ (Emax>250)
29 | Cc1nc2nc([C@H]3CCO[C@@H](c4cnn(C5CC5)c4)C3)nc(-c3ccc(Cl)cc3F)c2nc1C (single isomer, unassigned) [Example 181] |  | +++ (Emax>150 and ≤250)
30 | Cc1ccc2c(-c3ccc(Cl)cc3F)nc(N3CCO[C@@H](c4cnn(C)c4)C3)cc2c1 [Example 147, 1-(4-chloro-2-fluorophenyl)-6-methyl-3-((2S)-2-(1-methyl-1H-pyrazol-4-yl)-4-morpholinyl) isoquinoline] | 3000 to 100000 nM | ++++ (Emax>250)
31 | Cc1nc2cc([C@H]3CCO[C@@H](c4cnn(C)c4)C3)nc(-c3ccc(F)cc3F)c2nc1C (single isomer, unassigned) [Example 195] | ≤ 50 nM | ++++ (Emax>250)
